In series [1] the test system is Female C57BL/6 mice immunosuppressed with cyclophosphamide. In words: Chemoprotection studies: in vivo induction of immune cell proliferation or protection in cyclophosphamide-immunosuppressed mice. The settings on record: oral pre-treatment day -3, -2, -1, CY 200 mg/kg i.v. day 0, sacrifice day +5; for peripheral white blood cell count: FIG. 2; for spleen red cell count: FIG. 3. As for the experimental part: Chemoprotection Studies: In vivo Induction of Immune Cell Proliferation or Protection By Medium-Chain Fatty Alcohol.
Female C57BL/6 mice, 6 to 8 weeks old, were immunosuppressed by treatment with 200 mg/kg of cyclophosphamide (CY) administered intravenously at day 0. To examine the immunoprotective effect of the medium-chain fatty alcohol, mice were pre-treated at day −3, −2 and −1 by oral administration of the compound. Mice were sacrificed at day +5 by cardiac puncture and cervical dislocation. After the sacrifice, tissues were crushed in PBS buffer and cells were counted on a hemacytometer.

The test system of a further series is rats. The note with it: oral; cited from earlier work.

SMILES strings stand for the structures.

Regarding `CCCCCCCCO` [octanol], in series [1], the “peripheral white blood cell count” value is “nonsignificant increase” and the “spleen red cell count” value is recorded as “significant increase”. The LD50 in the series on rats is given as 3.2 g/kg body weight.

Regarding `CCCCCCCCCCCCO` [dodecanol], in series [1], the “peripheral white blood cell count” value is “nonsignificant increase” and the “spleen red cell count” value is recorded as “significant increase”.

With `CCCCCCCCCCO` [decanol], in series [1] (FIG. 1), the “bone marrow white cell count” value is given as “significant increase”. Also, in series [1], the “peripheral white blood cell count” value is listed as “nonsignificant increase” and the “spleen red cell count” value was “significant increase”. Moreover, the LD50 in the series with rats is on record as 4.7 g/kg body weight.
